Experimental data as given in patent publication US20240316047A1, “INHIBITORS OF RNA HELICASE DHX9 AND USES THEREOF” (ACCENT THERAPEUTICS, INC., priority 2022, published 2024).

Molecular target: Human recombinant DHX9 protein (Homo sapiens (Human), UniProt Q08211)
Assay: DHX9 ATPase assay (ADP-Glo)
Format: biochemical
Conditions: for IC50: read-out: DHX9 Biochemical Inflection Point

Sequence of Human recombinant DHX9 protein (Q08211 whole entry): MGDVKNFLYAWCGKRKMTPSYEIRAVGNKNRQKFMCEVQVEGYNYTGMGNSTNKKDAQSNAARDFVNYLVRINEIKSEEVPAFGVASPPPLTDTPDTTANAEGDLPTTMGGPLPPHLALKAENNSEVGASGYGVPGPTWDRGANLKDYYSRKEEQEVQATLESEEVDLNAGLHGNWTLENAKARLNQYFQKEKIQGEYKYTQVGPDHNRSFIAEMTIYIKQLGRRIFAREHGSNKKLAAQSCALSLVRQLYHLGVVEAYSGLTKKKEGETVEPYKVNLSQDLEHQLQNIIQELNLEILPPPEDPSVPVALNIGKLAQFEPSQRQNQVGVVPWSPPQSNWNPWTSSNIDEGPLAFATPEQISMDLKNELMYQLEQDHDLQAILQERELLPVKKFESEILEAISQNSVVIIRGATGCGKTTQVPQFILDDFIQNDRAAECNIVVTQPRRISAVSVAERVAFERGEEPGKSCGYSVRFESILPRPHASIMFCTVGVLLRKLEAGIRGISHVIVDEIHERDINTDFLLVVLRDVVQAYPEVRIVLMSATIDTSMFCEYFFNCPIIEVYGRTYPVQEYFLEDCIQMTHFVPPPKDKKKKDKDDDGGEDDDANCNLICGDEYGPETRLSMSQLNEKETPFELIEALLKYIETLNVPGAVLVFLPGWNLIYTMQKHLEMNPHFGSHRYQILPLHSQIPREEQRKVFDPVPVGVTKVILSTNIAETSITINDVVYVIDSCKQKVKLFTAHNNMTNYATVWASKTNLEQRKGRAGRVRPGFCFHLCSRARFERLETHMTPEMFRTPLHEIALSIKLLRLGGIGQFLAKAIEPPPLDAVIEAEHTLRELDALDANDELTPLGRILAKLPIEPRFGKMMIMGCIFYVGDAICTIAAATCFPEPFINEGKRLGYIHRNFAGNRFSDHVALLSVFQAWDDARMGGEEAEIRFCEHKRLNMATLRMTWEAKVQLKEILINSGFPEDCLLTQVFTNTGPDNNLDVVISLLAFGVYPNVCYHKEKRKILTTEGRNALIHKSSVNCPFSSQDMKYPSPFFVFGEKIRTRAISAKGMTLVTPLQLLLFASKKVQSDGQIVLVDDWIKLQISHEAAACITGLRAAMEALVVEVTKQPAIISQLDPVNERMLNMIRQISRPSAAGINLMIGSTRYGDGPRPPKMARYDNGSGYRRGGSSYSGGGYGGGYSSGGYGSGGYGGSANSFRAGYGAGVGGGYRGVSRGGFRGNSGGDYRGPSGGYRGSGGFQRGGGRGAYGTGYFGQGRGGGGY

DHX9 Biochemical Max Inhibition | IC50 | Structure (SMILES)
72.1% | 32.2 nM | CCn1cc(C(=O)Nc2cc(Cl)cc(NS(C)(=O)=O)c2)cc1-c1ccc(N2CCOCC2)cn1 [Example 274]
75.1% | 76.2 nM | CS(=O)(=O)Nc1cc(Cl)cc(NC(=O)c2cc(-c3ccc(N4CCOCC4)cn3)n(CC(F)(F)F)c2)c1 [Example 275]
73.8% | 4.7 nM | Cc1cc(C(=O)Nc2cc(Cl)cc(NS(C)(=O)=O)c2)cn1-c1ccc(N2CC3(COC3)C2)cn1 [Example 276]
72.5% | 4.3 nM | Cn1cc(C(=O)Nc2cc(Cl)cc(NS(C)(=O)=O)c2)cc1-c1ccc(N2CC3(COC3)C2)cn1 [Example 277]
74.1% | 44.2 nM | CS(=O)(=O)Nc1cc(Cl)cc(NC(=O)c2cc(-c3ccc(N4CC5(COC5)C4)cn3)n(CC(F)(F)F)c2)c1 [Example 278]
73.2% | 4 nM | Cn1cc(C(=O)Nc2cc(Cl)cc(NS(C)(=O)=O)c2)cc1-c1ncccc1OCc1nccs1 [Example 279]
76.3% | 326 nM | Cc1cc(C(=O)Nc2cc(Cl)cc(NS(C)(=O)=O)c2)cn1-c1ncccc1OCc1nccs1 [Example 280]
75.7% | 28 nM | Cc1cc(C(=O)Nc2cc(Cl)cc(NS(C)(=O)=O)c2)cn1-c1ncccc1O [Example 281]
72.4% | 96.4 nM | Cc1cc(C(=O)Nc2cc(Cl)cc(NS(C)(=O)=O)c2)cn1C1CCCC1 [Example 282]
78% | 29.2 nM | Cc1cc(C(=O)Nc2cc(Cl)cc(NS(C)(=O)=O)c2)cn1-c1ccc(N2CCN(C(=O)C(C)C)CC2)cn1 [Example 283]
79.6% | 4.1 nM | Cc1cc(C(=O)Nc2cc(Cl)cc(NS(C)(=O)=O)c2)cn1-c1ccc(N2CCN(C(=O)N(C)C)CC2)cn1 [Example 284]
70.6% | 5.4 nM | Cc1cc(C(=O)Nc2cc(Cl)cc(NS(C)(=O)=O)c2)cn1-c1ccc(N2CCS(=O)(=O)CC2)cn1 [Example 285]
72.9% | 240 nM | CS(=O)(=O)Nc1cc(Cl)cc(NC(=O)c2cc(-c3ccc(F)cn3)n(CC(F)F)c2)c1 [Example 286]
82.6% | 19.1 nM | CC(O)c1cc(C(=O)Nc2cc(Cl)cc(NS(C)(=O)=O)c2)cn1-c1ccccn1 (stereo not drawn) [Example 287]
58.7% | 132 nM | CS(=O)(=O)Nc1cc(Cl)cc(NC(=O)c2cc3cnccc3s2)c1 [Example 288]
66.9% | 80.6 nM | CS(=O)(=O)Nc1cc(Cl)cc(NC(=O)c2cc3ncccc3s2)c1 [Example 289]
59.7% | 5590 nM | Cc1cncc2cc(C(=O)Nc3cc(Cl)cc(NS(C)(=O)=O)c3)sc12 [Example 290]
59.7% | 144 nM | COc1cc2cc(C(=O)Nc3cc(Cl)cc(NS(C)(=O)=O)c3)sc2cc1OC [Example 291]
68.5% | 76 nM | CS(=O)(=O)Nc1cc(Cl)cc(NC(=O)c2cc3cccnn3c2)c1 [Example 292]
55% | 87.2 nM | CS(=O)(=O)Nc1cc(Cl)cc(NC(=O)c2cc3ccc(Cl)cc3s2)c1 [Example 293]
59% | 1610 nM | CS(=O)(=O)Nc1cc(Cl)cc(NC(=O)c2cc3ccc(F)cc3s2)c1 [Example 294]

Second part, the compound before the results:

Structure (SMILES) | DHX9 Biochemical Max Inhibition | IC50
CS(=O)(=O)Nc1cc(Cl)cc(NC(=O)c2cnn(C3CC4CCC(C3)O4)c2)c1 (stereo not drawn) [Example 250] | 64.6% | 185 nM
CS(=O)(=O)Nc1cc(Cl)cc(NC(=O)c2cnn(-c3ncc(F)cc3CCc3cccc(F)c3)c2)c1 [Example 251] | 64.7% | 5200 nM
CS(=O)(=O)Nc1cc(Cl)cc(NC(=O)c2cnn(-c3ncccc3OCc3ncc[nH]3)c2)c1 [Example 252] | 72.1% | 48.9 nM
CS(=O)(=O)Nc1cc(Cl)cc(NC(=O)c2cnn(-c3ncccc3OCc3ccn[nH]3)c2)c1 [Example 253] | 70% | 110 nM
CS(=O)(=O)Nc1cc(Cl)cc(NC(=O)c2cnn(-c3ncccc3OCc3c[nH]cn3)c2)c1 [Example 254] | 64.1% | 59.5 nM
Cc1cccc(OCc2cccc(F)c2)c1-n1cc(C(=O)Nc2cc(Cl)cc(NS(C)(=O)=O)c2)cn1 [Example 255] | 75.8% | 72.4 nM
CS(=O)(=O)Nc1cc(Cl)cc(NC(=O)c2cnn(-c3ccccc3-c3cncc(F)c3)c2)c1 [Example 257] | 66.5% | 207 nM
CS(=O)(=O)Nc1cc(Cl)cc(NC(=O)c2cnn(-c3ncc(N4CC5(COC5)C4)cc3OCc3cc(F)cc(F)c3)c2)c1 [Example 258] | 72.9% | 4.7 nM
Cc1cnc(-n2cc(C(=O)Nc3cc(Cl)cc(NS(C)(=O)=O)c3)cn2)c(OCc2cnco2)c1 [Example 261] | 71% | 47.5 nM
CS(=O)(=O)Nc1cc(Cl)cc(NC(=O)c2cnn(-c3ncccc3COc3cncc(F)c3)c2)c1 [Example 262] | 66.5% | 120 nM
CS(=O)(=O)Nc1cc(Cl)cc(NC(=O)c2cnn(-c3ccccc3Oc3ncccn3)c2)c1 [Example 263] | 63.8% | 170 nM
CS(=O)(=O)Nc1cc(Cl)cc(NC(=O)c2cnn(-c3ccccc3Oc3cccnc3)c2)c1 [Example 264] | 56.7% | 119 nM
CS(=O)(=O)Nc1cc(Cl)cc(NC(=O)c2cnn(-c3ccccc3Oc3cccc(F)c3)c2)c1 [Example 265] | 51.8% | 8050 nM
CN1CCC(c2ccc(-n3cc(C(=O)Nc4cc(Cl)cc(NS(C)(=O)=O)c4)cn3)nc2)CC1=O (stereo not drawn) [Example 266] | 64.4% | 13.1 nM
CS(=O)(=O)Nc1cc(Cl)cc(NC(=O)c2cc(C(F)(F)F)n(-c3ccc(F)cn3)c2)c1 [Example 267] | 66.4% | 248 nM
Cn1cc(C(=O)Nc2cc(Cl)cc(NS(C)(=O)=O)c2)cc1-c1ncc(F)cc1OCc1cnco1 [Example 268] | 73.1% | 9.4 nM
Cc1cc(C(=O)Nc2cc(Cl)cc(NS(C)(=O)=O)c2)cn1-c1ccc(N(C)C2CCOC2)cn1 (stereo not drawn) [Example 269] | 76.9% | 4.4 nM
Cc1cc(C(=O)Nc2cc(Cl)cc(NS(C)(=O)=O)c2)cn1-c1ccc(N2CCCC2)cn1 [Example 270] | 74.1% | 9.7 nM
CS(=O)(=O)Nc1cc(Cl)cc(NC(=O)c2cc(C(F)(F)F)n(-c3ccc(N4CCOCC4)cn3)c2)c1 [Example 271] | 66.1% | 86.5 nM
Cc1cc(C(=O)Nc2cc(Cl)cc(NS(C)(=O)=O)c2)cn1-c1ccc(N2CCOC(C)(C)C2)cn1 [Example 272] | 71.6% | 5.4 nM
Cn1cc(C(=O)Nc2cc(Cl)cc(NS(C)(=O)=O)c2)cc1-c1ccc(N2CCOCC2)cn1 [Example 273] | 71.4% | 6.5 nM
